Test results: US20050170485A1, “Culture having phenol oxidase-like activity” (priority 2002, published 2005)

Assays:
[1] = system: culture of Flammulina velutipes strain IFO 30601; assay: Decolorization / oxidative degradation / oxidative polymerization of pigments and lignin by the culture; format: biochemical; conditions: for specificity of the culture compared with bilirubin oxidase from the genus Myrothecium: Table 3; for reaction of the substrate catalyzed by the culture (in words): neutral conditions; for Specific Activity, Culture: reaction pH 7.0, 25° C., without sign = degradation or decolorization, minus = polymerization activity
Source text: The decolorization activity on the respective dyes can be evaluated by measuring as the dye, Evans' Blue, Acid Blue 80, Remazol Brilliant Blue R and Acid Violet 17 in the step c) for their absorbance at 600 nm, 600 nm, 600 nm and 550 nm respectively. In addition, regarding the lignin, the oxidative degradation activity on the respective dyes can be evaluated by measuring the absorbance at 450 nm in the step c). The oxidative polymerization activity on the respective dyes can be evaluated by measuring as the dye, Indigo Carmine and Natural Orange 6 in the step c) for their absorbance at 600 nm and 450 nm respectively.
Next, chemical changes of various substrates generated by the action of the culture for the substrate specificity of the culture obtained in (2) of Example 1 was examined by determining a change in the absorbance of the buffer containing each substrate.
As the substrate, commercially available pigments (Evans' Blue, Acid Blue 80, Remazol Brilliant Blue R, Indigo Carmine, Acid Violet 17, Natural Orange) and lignin (trade name: Lignin Alkali, manufactured by Tokyo Kasei) were used.
(§1) Concretely, 950 μl of 105.3 mM sodium phosphate buffer (pH 7.0) containing a substrate adjusted to have a final concentration as shown in Table 2 was pre-incubated at 25° C. for 5 minutes. Next, 50 μl of the culture solution was added to the resulting product, and thereafter, the mixture was reacted in a cuvette. The absorbance for each substrate was determined at a measuring wavelength with a spectrophotometer (manufactured by Shimadzu Corporation, trade name: UV-2450). For the comparison, the examination was also made for bilirubin oxidase from a strain belonging to the genus Myrothecium in the same manner by replacing the above-mentioned buffer with 105.3 mM Tris-HCl buffer (pH 8.0).
(§2) Here, 1 U (unit) of the activity was defined as an amount for increasing the absorbance by 1 per one minute. In Table 3, a specific activity shown without a sign indicates degradation activity or decolorization activity, and a specific activity shown with—(minus) indicates polymerization activity.

[2] = target: T1, bilirubin oxidase from a strain belonging to the genus Myrothecium (Albifimbria verrucaria, UniProt Q12737); assay: Decolorization / degradation / polymerization of pigments and lignin by bilirubin oxidase (comparison); format: biochemical; conditions: reaction pH 8.0; without sign = degradation or decolorization, minus = polymerization activity
T1 sequence (Q12737 39-572): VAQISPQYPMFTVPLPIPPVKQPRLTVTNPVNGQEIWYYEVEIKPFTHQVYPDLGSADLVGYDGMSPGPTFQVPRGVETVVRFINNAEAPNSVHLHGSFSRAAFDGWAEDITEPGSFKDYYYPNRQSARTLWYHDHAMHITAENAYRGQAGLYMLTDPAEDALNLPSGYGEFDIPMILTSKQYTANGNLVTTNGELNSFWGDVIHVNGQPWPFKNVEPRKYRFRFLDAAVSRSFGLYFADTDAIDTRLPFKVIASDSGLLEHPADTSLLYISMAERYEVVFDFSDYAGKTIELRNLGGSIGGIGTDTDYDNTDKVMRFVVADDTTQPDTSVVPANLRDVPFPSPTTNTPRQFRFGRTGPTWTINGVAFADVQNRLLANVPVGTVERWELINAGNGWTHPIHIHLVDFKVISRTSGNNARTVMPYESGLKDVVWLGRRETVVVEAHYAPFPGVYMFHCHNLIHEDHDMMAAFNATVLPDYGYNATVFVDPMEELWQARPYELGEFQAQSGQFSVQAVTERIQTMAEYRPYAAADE
Protocol: as §1, §2

SMILES | specificity of the culture compared with bilirubin oxidase from the genus Myrothecium [1] | reaction of the substrate catalyzed by the culture (in words) [1] | Specific Activity, Culture [1] [U/mg Protein] | Specific Activity, Bilirubin Oxidase from Strain Belonging to Genus Myrothecium [2] [U/mg Protein]
Nc1c(S(=O)(=O)[O-])cc(Nc2cccc(S(=O)(=O)CCOS(=O)(=O)[O-])c2)c2c1C(=O)c1ccccc1C2=O.[Na+].[Na+] [Remazol Brilliant Blue R] | significantly differs | strongly catalyzed | 0.97 | −0.18
Cc1cc(-c2ccc(/N=N/c3ccc4c(S(=O)(=O)[O-])cc(S(=O)(=O)[O-])c(N)c4c3O)c(C)c2)ccc1/N=N/c1ccc2c(S(=O)(=O)[O-])cc(S(=O)(=O)[O-])c(N)c2c1O.[Na+].[Na+].[Na+].[Na+] [Evans' Blue] |  |  | 0.32 | 1.22
CCN(CC)c1ccc(C(=C2C=CC(=[N+](CC)Cc3cccc(S(=O)(=O)[O-])c3)C=C2)c2ccc(N(CC)Cc3cccc(S(=O)(=O)[O-])c3)cc2)cc1.[Na+] [Acid Violet 17] | significantly differs | oxidative decolorization reaction | 0.12 | −0.40
O=C1/C(=C2\Nc3ccc(S(=O)(=O)[O-])cc3C2=O)Nc2ccc(S(=O)(=O)[O-])cc21.[Na+].[Na+] [Indigo Carmine] | significantly differs | oxidative polymerization reaction | −0.22 | 0.46
O=C1C=C(O)C(=O)c2ccccc21 [Natural Orange 6] |  | oxidative polymerization reaction | −0.18 | −0.11
Cc1cc(C)c(S(=O)(=O)[O-])c(C)c1Nc1ccc(Nc2c(C)cc(C)c(S(=O)(=O)[O-])c2C)c2c1C(=O)c1ccccc1C2=O.[Na+].[Na+] [Acid Blue 80] |  |  | 0.30 | 0.39
